According to PubChem BioAssay (NCI):
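Five compound concentrations were applied to cells in 96-well plates for 48 hours; endpoints were derived by simple linear interpolation of the resulting dose-response curve. TGI marks complete inhibition of growth.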

Assays:
Assay in all cases: NCI tumour cell line growth inhibition, 48 h
OVCAR-5 ovarian = system: OVCAR-5 ovarian
NCI/ADR-RES ovarian = system: NCI/ADR-RES ovarian
SF-295 CNS = system: SF-295 CNS
U251 CNS = system: U251 CNS
RPMI-8226 leukemia = system: RPMI-8226 leukemia
NCI-H23 lung = system: NCI-H23 lung
DU-145 prostate = system: DU-145 prostate
HCT-116 colon = system: HCT-116 colon
COLO 205 colon = system: COLO 205 colon
MDA-N = system: MDA-N
NCI-H460 lung = system: NCI-H460 lung
SNB-75 CNS = system: SNB-75 CNS
RXF 393 renal = system: RXF 393 renal
SF-268 CNS = system: SF-268 CNS
EKVX NSCLC = system: EKVX NSCLC
SK-OV-3 ovarian = system: SK-OV-3 ovarian
NCI-H522 lung = system: NCI-H522 lung
TK-10 renal = system: TK-10 renal
MOLT-4 leukemia = system: MOLT-4 leukemia
HS 578T breast = system: HS 578T breast
ACHN renal = system: ACHN renal
SK-MEL-28 melanoma = system: SK-MEL-28 melanoma
SR leukemia = system: SR leukemia
MALME-3M melanoma = system: MALME-3M melanoma
HT29 colon = system: HT29 colon
SK-MEL-5 melanoma = system: SK-MEL-5 melanoma
HOP-62 NSCLC = system: HOP-62 NSCLC
SN12C renal = system: SN12C renal
NCI-H226 lung = system: NCI-H226 lung
A549 NSCLC = system: A549 NSCLC
OVCAR-3 ovarian = system: OVCAR-3 ovarian
PC-3 prostate = system: PC-3 prostate
KM12 colon = system: KM12 colon
SF-539 CNS = system: SF-539 CNS
UACC-62 melanoma = system: UACC-62 melanoma
CAKI-1 renal = system: CAKI-1 renal
HCT-15 colon = system: HCT-15 colon
OVCAR-4 ovarian = system: OVCAR-4 ovarian
A498 renal = system: A498 renal
HL-60(TB) leukemia = system: HL-60(TB) leukemia
T-47D breast = system: T-47D breast
SW-620 colon = system: SW-620 colon
IGROV1 ovarian = system: IGROV1 ovarian
HCC-2998 colon = system: HCC-2998 colon
UO-31 renal = system: UO-31 renal
LOX IMVI melanoma = system: LOX IMVI melanoma
MDA-MB-435 = system: MDA-MB-435
SK-MEL-2 melanoma = system: SK-MEL-2 melanoma
MCF7 breast = system: MCF7 breast
CCRF-CEM leukemia = system: CCRF-CEM leukemia
SNB-19 CNS = system: SNB-19 CNS
OVCAR-8 ovarian = system: OVCAR-8 ovarian
MDA-MB-231 breast = system: MDA-MB-231 breast
M14 melanoma = system: M14 melanoma
786-0 renal = system: 786-0 renal
K-562 leukemia = system: K-562 leukemia
HOP-92 NSCLC = system: HOP-92 NSCLC
UACC-257 melanoma = system: UACC-257 melanoma
BT-549 breast = system: BT-549 breast

With `CCCCC(=O)c1c(O)nc2sccn2c1=O` the TGI (OVCAR-5 ovarian) was > 10 µM, the TGI (NCI/ADR-RES ovarian) was > 10 µM and the TGI (SF-295 CNS) was > 10 µM. The TGI (U251 CNS) was > 10 µM, the TGI (RPMI-8226 leukemia) was > 10 µM and the TGI (NCI-H23 lung) was > 10 µM. For the same molecule, the TGI (DU-145 prostate) was > 10 µM, the TGI (HCT-116 colon) was > 10 µM and the TGI (COLO 205 colon) was > 10 µM. For the same molecule, the TGI (MDA-N) was > 10 µM, the TGI (NCI-H460 lung) was > 10 µM and the TGI (SNB-75 CNS) was > 10 µM. For the same molecule, the TGI (RXF 393 renal) was > 10 µM, the TGI (SF-268 CNS) was > 10 µM and the TGI (EKVX NSCLC) was > 10 µM. For the same molecule, the TGI (SK-OV-3 ovarian) was > 10 µM, the TGI (NCI-H522 lung) was > 10 µM and the TGI (TK-10 renal) was > 10 µM. The TGI (MOLT-4 leukemia) was > 10 µM, the TGI (HS 578T breast) was > 10 µM and the TGI (ACHN renal) was > 10 µM. The TGI (SK-MEL-28 melanoma) was > 10 µM, the TGI (SR leukemia) was > 10 µM and the TGI (MALME-3M melanoma) was > 10 µM. For the same molecule, the TGI (HT29 colon) was > 10 µM, the TGI (SK-MEL-5 melanoma) was > 10 µM and the TGI (HOP-62 NSCLC) was > 10 µM. The TGI (SN12C renal) was > 10 µM, the TGI (NCI-H226 lung) was > 10 µM and the TGI (A549 NSCLC) was > 10 µM. For the same molecule, the TGI (OVCAR-3 ovarian) was > 10 µM, the TGI (PC-3 prostate) was > 10 µM and the TGI (KM12 colon) was > 10 µM. For the same molecule, the TGI (SF-539 CNS) was > 10 µM, the TGI (UACC-62 melanoma) was > 10 µM and the TGI (CAKI-1 renal) was > 10 µM. The TGI (HCT-15 colon) was > 10 µM, the TGI (OVCAR-4 ovarian) was > 10 µM and the TGI (A498 renal) was > 10 µM. For the same molecule, the TGI (HL-60(TB) leukemia) was > 10 µM, the TGI (T-47D breast) was > 10 µM and the TGI (SW-620 colon) was > 10 µM. For the same molecule, the TGI (IGROV1 ovarian) was > 10 µM, the TGI (HCC-2998 colon) was > 10 µM and the TGI (UO-31 renal) was > 10 µM. For the same molecule, the TGI (LOX IMVI melanoma) was > 10 µM, the TGI (MDA-MB-435) was > 10 µM and the TGI (SK-MEL-2 melanoma) was > 10 µM. For the same molecule, the TGI (MCF7 breast) was > 10 µM, the TGI (CCRF-CEM leukemia) was > 10 µM and the TGI (SNB-19 CNS) was > 10 µM. For the same molecule, the TGI (OVCAR-8 ovarian) was > 10 µM, the TGI (MDA-MB-231 breast) was > 10 µM and the TGI (M14 melanoma) was > 10 µM.
`COC(C(=O)NN)c1ccccc1` (centres undefined) was tested, and the TGI (OVCAR-5 ovarian) was > 100 µM, the TGI (NCI/ADR-RES ovarian) was > 100 µM and the TGI (SF-295 CNS) was > 100 µM. The TGI (U251 CNS) was > 100 µM, the TGI (RPMI-8226 leukemia) was > 100 µM and the TGI (NCI-H23 lung) was > 100 µM. The TGI (DU-145 prostate) was > 100 µM, the TGI (786-0 renal) was > 100 µM and the TGI (MDA-N) was > 100 µM. For the same molecule, the TGI (NCI-H460 lung) was > 100 µM, the TGI (SNB-75 CNS) was > 100 µM and the TGI (RXF 393 renal) was > 100 µM. For the same molecule, the TGI (SF-268 CNS) was > 100 µM, the TGI (EKVX NSCLC) was > 100 µM and the TGI (SK-OV-3 ovarian) was > 100 µM. The TGI (K-562 leukemia) was > 100 µM, the TGI (NCI-H522 lung) was > 100 µM and the TGI (TK-10 renal) was > 100 µM. The TGI (MOLT-4 leukemia) was > 100 µM, the TGI (HS 578T breast) was > 100 µM and the TGI (ACHN renal) was > 100 µM. The TGI (SK-MEL-28 melanoma) was > 100 µM, the TGI (SR leukemia) was > 100 µM and the TGI (HOP-92 NSCLC) was > 100 µM. For the same molecule, the TGI (MALME-3M melanoma) was > 100 µM, the TGI (HT29 colon) was > 100 µM and the TGI (SK-MEL-5 melanoma) was > 100 µM. The TGI (HOP-62 NSCLC) was > 100 µM, the TGI (SN12C renal) was > 100 µM and the TGI (NCI-H226 lung) was > 100 µM. The TGI (A549 NSCLC) was > 100 µM, the TGI (OVCAR-3 ovarian) was > 100 µM and the TGI (PC-3 prostate) was > 100 µM. For the same molecule, the TGI (KM12 colon) was > 100 µM, the TGI (SF-539 CNS) was > 100 µM and the TGI (UACC-62 melanoma) was > 100 µM. For the same molecule, the TGI (CAKI-1 renal) was > 100 µM, the TGI (HCT-15 colon) was > 100 µM and the TGI (UACC-257 melanoma) was > 100 µM. The TGI (SW-620 colon) was > 100 µM, the TGI (IGROV1 ovarian) was > 100 µM and the TGI (HCC-2998 colon) was > 100 µM. For the same molecule, the TGI (UO-31 renal) was > 100 µM, the TGI (BT-549 breast) was > 100 µM and the TGI (MDA-MB-435) was > 100 µM. The TGI (SK-MEL-2 melanoma) was > 100 µM, the TGI (MCF7 breast) was > 100 µM and the TGI (SNB-19 CNS) was > 100 µM. For the same molecule, the TGI (OVCAR-8 ovarian) was > 100 µM and the TGI (M14 melanoma) was > 100 µM.
